One may read the AUC as the area under the concentration-time curve, a measure of exposure. Read a low AUC as low exposure. For orientation: Cmax means the maximum level reached in the sampled fluid or tissue. One may read the IC50 as the midpoint of a concentration-inhibition curve. Low readings indicate inhibition by little substance, high ones a need for much substance.

A short description of series [1]: Determination of pharmacokinetic parameters in rats. In kind it is in vivo. The conditions noted are these: male, Wistar Han (Hanover-Wistar), Crl:WI(GLx/BRL/Han)IGS BR, rat, oral gavage, 10 mg/kg, plasma; for AUC(0-t): read-out: AUC0→24 (extrapolated). As to the method:
Intact male IGS Wistar Han Rats Crl:WI(GLx/BRL/Han)IGS BR (Hanover-Wistar) rats weighing 200-250 g were used. Groups of three rats were used for each dose level of an experimental compound. Animals were allowed normal access to chow and water throughout the experiment. The test substance was formulated as an aqueous suspension containing Captex355EP, Capmul MCM, EtOH, and propylene glycol (30:20:20:30) at a dose equivalent to 10 mg/kg of the I-6 and was administered orally by gavage. A blood sample (0.3 mL) was collected from the treated rats at, 0.25, 0.5, 1, 3, 5, and 8 h from a jugular cannula and at 24 h by cardiac puncture. Potassium oxalate/NaF were added to the samples which were stored on ice during sampling procedure. The samples were spun in a refrigerated centrifuge at […] as soon as possible and the plasma samples were stored in a −80° C. freezer until analysis. Aliquots of plasma (0.05 mL) were mixed with 0.1 mL of acetonitrile. Internal standard (0.05 mL in water) and 0.02 mL blank solvent were added. A set of calibration standards was prepared by mixing 0.05-mL aliquots of plasma from untreated rats with 0.1 mL acetonitrile, 0.02-mL aliquots of standard solution in methanol:water (1:1) and 0.05-mL aliquots of the internal standard in water. Each plasma sample and calibration standard was vortexed thoroughly and then centrifuged at 3000 rpm for 5 min to precipitate the protein. Supernatant (100 μL each) from centrifugation was transferred into a 96-well plate containing 200 μL of aqueous mobie phase for LC/MS/MS analysis.

For series [2], the system named is HCV replicon cells (2209-23). Put plainly: HCV replicon assay (Renilla luciferase reporter). To be noted: Hepatitis C virus, 72 h; 2209-23 cells, three days incubation. In kind it is cell-based, HCV genotype 1b replicon in human hepatoma Huh7 cells. For orientation: Replicon systems follow genome replication, usually without infectious particles.
For series [3], the system named is HCV. To be noted: monotherapy; cited from earlier work.

Regarding `[2H]C([2H])([2H])C(c1cc(-c2cc(Cl)c[nH]c2=O)cc(/C=C/c2ccc(NS(C)(=O)=O)cc2)c1OC)(C([2H])([2H])[2H])C([2H])([2H])[2H]` [Compound I-3, N-(4-{(E)-2-[3-[1,1-di(methyl-d3)ethyl-2,2,2-d3]-2-methoxy-5-(2-oxo-5-chloro-1,2-dihydro-pyridin-3-yl)-phenyl]-vinyl}-phenyl)-methanesulfonamide], in series [1], the AUC amounted to 0.81 µg·h/mL, the peak concentration (Cmax) came to 0.0834 µg/mL and the AUC(0-t) is 1 µg·h/mL.
As for `[2H]C([2H])([2H])C(c1cc(-c2ccc[nH]c2=O)cc(/C=C/c2ccc(NS(C)(=O)=O)cc2)c1OC)(C([2H])([2H])[2H])C([2H])([2H])[2H]` [Compound I-1, N-(4-{(E)-2-[3-[1,1-di(methyl-d3)ethyl-2,2,2-d3]-2-methoxy-5-(2-oxo-1,2-dihydro-pyridin-3-yl)-phenyl]-vinyl}-phenyl)-methanesulfonamide], half-maximal inhibition in series [2] (IC50) required 6.1 nM.
As for `NC(=O)c1ncn([C@@H]2O[C@H](CO)[C@@H](O)[C@H]2O)n1` [ribavirin, 1-((2R,3R,4S,5R)-3,4-Dihydroxy-5-hydroxymethyl-tetrahydro-furan-2-yl)-1H-[1,2,4]triazole-3-carboxylic acid amide], the “patients with serum amino transferase levels reduced to normal” value in series [3] is reported as 40%.
As for `COc1c(/C=C/c2ccc(NS(C)(=O)=O)cc2)cc(-c2cc(Cl)c[nH]c2=O)cc1C(C)(C)C` [I-3 (non-deuterated), reference compound], in series [1], the AUC was 0.338 µg·h/mL, the Cmax turned out to be 0.0558 µg/mL and the AUC(0-t) was 0.365 µg·h/mL.
As for `[2H]C([2H])([2H])C(c1cc(-c2c[nH]c(=O)[nH]c2=O)cc(/C=C/c2ccc(NS(C)(=O)=O)cc2)c1OC)(C([2H])([2H])[2H])C([2H])([2H])[2H]` [Compound I-4, N-(4-{(E)-2-[3-[1,1-di(methyl-d3)ethyl-2,2,2-d3]-5-(2,4-dioxo-1,2,3,4-tetrahydro-pyrimidin-5-yl)-2-methoxy-phenyl]-vinyl}-phenyl)-methanesulfonamide], half-maximal inhibition in series [2] (IC50) was put at 3.9 nM.

These data come from patent US8383824B2, “Heterocyclic antiviral compounds” (Roche Palo Alto LLC, priority 2009, dated 2013).
